Measured values from PubChem BioAssay (NCI).
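Tested at 5 concentrations; 48 h exposure; 96-well plates; endpoints linearly interpolated, else capped at highest concentration. Here, GI50 denotes the concentration required for 50% inhibition of growth. TGI is the concentration that stops growth completely.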

How the values were obtained:
Experiment in all cases: NCI anticancer screen, dose series, 48 h
HOP-92 NSCLC = tested on: HOP-92 NSCLC
NCI-H522 lung = tested on: NCI-H522 lung
786-0 renal = tested on: 786-0 renal
OVCAR-5 ovarian = tested on: OVCAR-5 ovarian
NCI-H226 lung = tested on: NCI-H226 lung
TK-10 renal = tested on: TK-10 renal
HL-60(TB) leukemia = tested on: HL-60(TB) leukemia
HOP-62 NSCLC = tested on: HOP-62 NSCLC
ACHN renal = tested on: ACHN renal

| Compound | GI50 (HOP-92 NSCLC) [µM] | TGI (HOP-92 NSCLC) [µM] | GI50 (NCI-H522 lung) [µM] | TGI (NCI-H522 lung) [µM] | GI50 (786-0 renal) [µM] | TGI (786-0 renal) [µM] | GI50 (OVCAR-5 ovarian) [µM] | TGI (OVCAR-5 ovarian) [µM] | GI50 (NCI-H226 lung) [µM] | TGI (NCI-H226 lung) [µM] | GI50 (TK-10 renal) [µM] | TGI (TK-10 renal) [µM] | GI50 (HL-60(TB) leukemia) [µM] | TGI (HL-60(TB) leukemia) [µM] | GI50 (HOP-62 NSCLC) [µM] | TGI (HOP-62 NSCLC) [µM] | GI50 (ACHN renal) [µM] | TGI (ACHN renal) [µM] |
| --- | --- | --- | --- | --- | --- | --- | --- | --- | --- | --- | --- | --- | --- | --- | --- | --- | --- | --- |
| COc1ccc(-c2onc(N)c2-c2cc(OC)c3c(c2)OCO3)cc1 | 4.98 | > 100 | 1.07 | 5.39 | 7.24 | > 100 | 6.74 | > 94 | 14.2 | > 100 | 8.49 | > 100 | 1.87 | 7.53 | 4.53 | > 100 | 6.39 | > 100 |
| O=C(O)C(=Cc1ccc(-c2ccccc2)cc1)C(=O)O |  | > 68.6 |  | 22.8 |  | 41.4 |  | > 55.6 |  | 48.4 |  | 30.7 |  | 26.6 |  | 22.5 |  | 60.1 |
| C#CCNC(=O)c1cccc2c1cc(C)n2-c1nc2c(c(NCc3ccccc3)n1)CCCC2 | 0.0239 | 0.0669 | 0.0251 | 0.0808 | 0.0292 | 0.0788 | 0.0461 | 0.154 | 0.017 | 0.0491 | 0.0345 | 0.111 | 0.029 | 0.191 | 0.0308 | 0.114 | 0.0255 | 0.11 |
| COC(=O)Nc1nc2ccc(Oc3ccc(NC(=O)Nc4cc(C(F)(F)F)ccc4F)cc3)cc2s1 | 0.288 | > 25 | > 25 | > 25 | > 25 | > 25 | > 25 | > 25 | > 25 | > 25 | > 25 | > 25 | > 13.5 | > 25 | 16.7 | > 25 | > 25 | > 25 |
| Cc1cc(-c2cnn3c(NCC4CC(C)(O)C4)cc(Oc4cccnc4)nc23)ccc1C(=O)NC1CC1 (stereo not given) | 6.42 | > 100 | 5.08 | > 100 | 3.71 | > 100 | > 100 | > 100 | > 100 | > 100 | 1.98 | > 100 | 1.25 | > 100 | 8.57 | > 100 | 1.29 | > 100 |
| O=C(O)/C=C(\c1nc2ccc([N+](=O)[O-])cc2[nH]1)c1cc(Cl)ccc1O | 0.711 | 5.35 | 1.17 | 5.03 | 3.77 | 28.3 | 5.29 | 43.3 | 2.32 | 46.4 | 4.11 | 15.4 | 2.42 | 30.4 | 3.55 | 28.3 | 2.38 | 10.6 |
| Cn1c2ccccc2c2ccc3c(c21)C(=O)c1ccccc1C3=O |  | 54.2 |  | 29.6 |  | 47.3 |  | > 100 |  | > 100 |  | 39.1 |  | 10.8 |  | 45.5 |  | 69.2 |
| O=C1c2cccc([N+](=O)[O-])c2C(=O)N1c1ncn[nH]1 |  | 52.6 |  | > 100 |  | > 100 |  | > 100 |  | > 100 |  | > 100 |  | > 100 |  | > 100 |  | > 100 |
| Cc1cc2c(cc1Cl)SC1=NN(C)S(=O)N1S2(=O)=O (stereo not given) | 25.5 | 87 | > 100 | > 100 | > 100 | > 100 | > 100 | > 100 | > 100 | > 100 | > 100 | > 100 | > 100 | > 100 | > 100 | > 100 | > 100 | > 100 |
| CCCCCCCC(=O)OCC/C=C/C1OC1C1OC(=O)/C=C\C=C\c2nc(oc2C)/C=C(/C)CCC2OC2C1OC(=O)NC(C)=O (stereo not given) | 0.0283 | 0.168 | 0.0192 | 0.0755 | 0.033 | 0.203 | 0.0193 | 0.104 | 0.0426 | 0.161 | 0.0391 | 0.232 | 0.114 | 2.07 | 0.0686 | 0.381 | 0.0103 | 0.933 |
| COc1cc[nH]c1/C=C1\C(=O)Nc2ccc(F)c(C#CC3(O)CCNCC3)c21 | 0.106 | 0.794 | 0.22 | 0.715 | 0.106 | 1.68 | 0.275 | 2.37 | 0.138 | 0.92 | 0.0291 | 0.72 | 0.0532 | 0.228 | 0.261 | 1.47 | 0.0262 | 2.56 |
| COc1ccc(N2C(=O)/C(=C/c3ccc(N(CCC#N)CCC#N)cc3C)N=C2c2cc([N+](=O)[O-])ccc2Cl)cc1 |  | > 100 |  | 12.5 |  | 43.7 |  | > 63.1 |  | 42.8 |  | > 63.1 |  | 26.6 |  | > 63.1 |  | > 63.1 |
| Cc1ccc(-c2nc3nc(-c4ccccc4)nc(N4CCCNCC4)c3o2)cc1 | 1.44 | 3.01 | 1.73 | 3.39 | 1.52 | 2.97 | 1.89 | 3.37 | 1.87 | 3.86 | 1.73 | 3.14 | 0.726 | 2.49 | 1.81 | 3.36 | 1.73 | 3.12 |
| C/C(O)=C(\N=O)C(=O)Nc1ccc(Cl)cc1Cl |  | > 100 |  | > 100 |  | > 100 |  | > 100 |  | > 100 |  | > 100 |  | > 100 |  | > 100 |  | > 100 |
| Nc1nc2c(nnn2C2CC(O)C(CO)O2)c(=O)[nH]1 (stereo not given) | 1.62 | 51.1 | 3.81 | > 100 | 2.99 | > 100 | 26.2 | > 100 | 8.75 | > 100 | > 100 | > 100 | 1.15 | > 38.1 | 7.91 | > 93.9 | 1 | > 22.7 |
| NC(=O)COC(=O)c1c(Cl)nc2sccn12 |  | > 100 |  | > 100 |  | 36 |  | > 100 |  | > 100 |  | > 100 |  | > 81.8 |  | > 100 |  | > 100 |
| O=C1CCC(N2C(=O)c3ccccc3C2=O)C(=O)N1CO (stereo not given) | 25 | > 100 | > 100 | > 100 | > 100 | > 100 | > 100 | > 100 | > 100 | > 100 | > 100 | > 100 | 32.2 | 89.5 | > 100 | > 100 | 95.2 | > 100 |
| O=C(CCN(C(=O)O)S(=O)(=O)c1ccc(NC(=O)c2ccccc2)cc1)NC1CCCCC1 |  | > 100 |  | > 100 |  | 31.7 |  | > 100 |  | > 100 |  | > 100 |  | 94.6 |  | > 100 |  | > 100 |
| COc1cc2ncn(-c3cc(OCc4cccs4)c(C(N)=O)s3)c2cc1OC | 4.38 | > 22 | 0.924 | > 12.5 | 4.86 | > 25 | 2.55 | > 25 | 7.13 | > 25 | 9.21 | > 25 | 0.804 | 8.73 | 1.53 | > 25 | 6.39 | > 25 |
| CCN(CC)C(c1ccc(N(C)C)cc1)C(c1ccc(N(C)C)cc1)N(CC)CC (stereo not given) |  | 45.7 |  | > 7.3 |  | > 73 |  | > 73 |  | > 73 |  | > 73 |  | 38.3 |  | > 73 |  | > 73 |
| O=C(CC1(O)C(=O)Nc2c(Cl)ccc(Cl)c21)c1ccc(F)cc1 (stereo not given) |  | 82.8 |  | > 100 |  | > 100 |  | > 100 |  | 79.6 |  | > 100 |  | 58.2 |  | > 100 |  | > 100 |
| CCOCC(=O)N[C@H]1CCc2cc(OC)c(OC)c(OC)c2-c2ccc(OC)c(=O)cc21 |  | 7.24 |  | 0.0768 |  | > 100 |  | > 100 |  | 2.52 |  | > 100 |  | 0.101 |  | > 100 |  | > 100 |
| O=C1Nc2ccccc2C1(c1ccc(O)cc1)c1ccc(O)cc1 | 2.42 | 21.2 | 17.2 | 43.4 | 26.7 | 75.9 | 25.6 | 81.5 | 12.8 | 59.7 | 0.536 | 39.6 | 22.9 | 63 | 20.5 | 53.1 | 17.9 | > 100 |
| C=C(C[C@](O)(C(=O)/C=C/c1ccc(Cl)cc1)C(=O)OC)c1ccccc1 | 4.07 | 15.5 | 2.25 | 6.95 | 1.66 | 3.24 | 3.48 | 13.1 | 3.48 | 16.3 | 2.33 | 6.21 | 2.72 | 7.83 | 2.72 | 9.03 | 2.17 | 5.2 |
| CCc1ccccc1NC(=O)C1=C(C)NC(C)=C(C(=O)Nc2ccccc2CC)C1c1ccc2c(c1)OCO2 |  | 60.1 |  | > 100 |  | > 100 |  | 82.9 |  | 81.4 |  | > 100 |  | 47.8 |  | 59.8 |  | 90.7 |
| Nc1c(-c2ccc(Cl)cc2)[n+]([O-])c2ccccc2[n+]1[O-] |  | > 100 |  | 85.6 |  | > 100 |  | > 100 |  | > 100 |  | > 100 |  | > 100 |  | > 100 |  | > 100 |
